Test results as given in US7872027B2, “Low molecular weight Myc-max inhibitors” (University of Pittsburgh - Of the Commonwealth System of …, priority 2006, dated 2011).

Legend:
[1] = test system: HL60 human promyelocytic leukemia cells; assay: HL60 cell growth inhibition (trypan blue cell counts); assay type: cell-based
Procedure: Note that all structures shown herein are drawn in their Z-isoform and some bonds have been standardized. IC50's here, as well as below for in FIGS. 2 and 3, were calculated based upon dose-response profiles on day 5 following the addition of each compound.
HL60 human promyelocytic leukemia cells were grown in RPMI medium supplemented with 10% fetal calf serum, 100 U/ml penicillin G, and 100 μg/ml streptomycin (all from Mediatech, Inc., Herndon, Va.). Rat fibroblast lines were grown under similar conditions in Dulbecco's modified minimal essential medium. To determine the effects of Myc-Max compounds on HL60 cell growth, logarithmically growing cells (>90% viability) were resuspended in fresh medium. Four (4) ml (a total of 16,000 cells) were then seeded into 6-well plates in the presence of the indicated amount of Myc-Max compound. In all cases, 10058-F4 was included as a reference compound. Daily cell counts were performed manually in triplicate on a hemacytometer using trypan blue exclusion. Viabilities exceeded 85% throughout the course of the experiment.
Each compound was initially tested for its ability to inhibit the growth of the HL60 human promyelocytic leukemia cell line, which expresses high levels of c-Myc as a result of gene amplification (Park S—H, et al. Methods Mol Biol 2004; 261:161-165 (2004)). […]

[2] = molecular target: T1, c-Myc-Max(S) heterodimer (Homo sapiens, UniProt P01106); assay: electrophoretic mobility shift assay (EMSA), E-box DNA binding; assay type: biochemical; settings: 60 nM each protein, 10 nM oligonucleotide
T1 construct: human Myc residues 353-439 with a GGCD extension at the C terminus; His6 (TEV-cleavable) (cleaved yes); made in house; host or cells: E. coli BL21DE3(plysS) for c-Myc; E. coli M15(pRep4) for Max
Procedure: (§1) Equivalent amounts of nuclear extracts were incubated with the indicated concentrations of the compounds depicted in FIGS. 1-3. Following precipitation of the complexes with an anti-Max antibody, the total amount of associated c-Myc was detected by immunoblotting (top panel). As a control, the lower portion of the blot was probed with an anti-Max antibody (bottom panel). FIGS. 4B, 4C and 4D show EMSAs results. Recombinant c-Myc353-439 (which encodes the complete bHLH-ZIP dimerization domain) and full-length Max(S) were purified to homogeneity from E. coli and used at a final concentration of 60 nM in the presence of the indicated concentration of compound.
Electrophoretic mobility shift Assays (EMSAs). Experiments were performed on 8% polyacrylamide:bis-acrylamide (80:1) gels in 0.5×TBE. […]
and was synthesized by Integrated DNA Technologies Inc (Coralville, Iowa). […] Data were analyzed with BioRad Quantity One software.
The second method used to gauge the effects of 10058-F4 and its analogs on c-Myc-Max complexes relied on the use of a simple, three component electrophoretic mobility shift assay (EMSA). […] The ability of the resultant heterodimer to bind a double-stranded target oligonucleotide containing a consensus E-box motif was then assessed by PAGE. […]

[3] = molecular target: T2, c-Myc-Max complexes (Homo sapiens, UniProt P01106); assay: co-immunoprecipitation of c-Myc and Max from HL60 nuclear extracts; assay type: biochemical; settings: 30° C. for 30 min
T2 construct: endogenous in cells; host or cells: HL60 nuclear extract
Procedure: as §1
Nuclei from HL60 cells were prepared essentially as described previously (17). Briefly, approximately 4×10^7 washed nuclei were resuspended in 1 ml of ice cold buffer F, which contained 150 mM NaCl; 10 mM Tris-HCl, pH 7.1; 30 mM sodium pyrophosphate; 5 μM ZnCl2; 0.1% Nonidet P-40; 0.1 mM Na3VO4; 1 mM PMSF; 2.5 U/ml each of pepstatin, leupeptin, and approtinin. All reagents were from Sigma-Aldrich (St. Louis, Mo.). […]
10058-F4 analogs interfere directly with c-Myc-Max heterodimerization and DNA binding. […] To address this, the effect of each compound on c-Myc-Max association was determined in vitro by two different methods. […] The total amount of co-precipitating c-Myc protein was then assessed by immunoblotting. […]

T1 sequence (P01106 368-454, one chain of several): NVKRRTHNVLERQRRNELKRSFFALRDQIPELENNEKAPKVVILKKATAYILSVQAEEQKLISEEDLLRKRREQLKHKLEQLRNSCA
T2 sequence (P01106 whole entry, one chain of several): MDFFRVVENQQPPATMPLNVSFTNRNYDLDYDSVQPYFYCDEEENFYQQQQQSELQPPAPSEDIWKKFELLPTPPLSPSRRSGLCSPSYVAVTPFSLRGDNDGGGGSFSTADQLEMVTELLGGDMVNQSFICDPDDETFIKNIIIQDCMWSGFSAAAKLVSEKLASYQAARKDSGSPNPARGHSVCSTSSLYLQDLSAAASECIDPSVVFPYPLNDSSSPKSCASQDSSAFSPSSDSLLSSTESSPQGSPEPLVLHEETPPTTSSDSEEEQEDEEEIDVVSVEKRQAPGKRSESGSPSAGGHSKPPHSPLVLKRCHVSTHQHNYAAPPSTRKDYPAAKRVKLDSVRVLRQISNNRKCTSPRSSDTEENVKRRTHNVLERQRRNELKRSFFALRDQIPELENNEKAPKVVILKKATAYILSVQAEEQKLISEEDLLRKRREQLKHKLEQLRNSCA

Question: With `CC(C)c1ccc(/C=C2\SC(=S)N(CN3CCCCC3)C2=O)cc1` [Compound 28RH-NCN-1] as the molecule, how does the “activity in HL60 cells compared with 10058-F4” value ([1]; 10058-F4 in parallel) read?
Answer: activities comparable to that of 10058-F4

Question: How did the “inhibition of E-box DNA binding by c-Myc-Max(S)” value [2] turn out when `CCc1ccc(C=C2SC(=S)NC2=O)cc1` [Compound 10058-F4, (Z,E)-5-(4-ethylbenzylidene)-2-thioxothiazolidin-4-one] was run?
Answer: dose-dependent, although variable, inhibition

Question: And the IC50 ([1]; Homo sapiens, HL-60, 120 h, dose-response profiles on day 5 following addition of compound, read-out: ID50, HL60 cell growth)?
Answer: 51 µM

Question: And the “dissociation of c-Myc from Max (co-IP with anti-Max antibody)” value [3]?
Answer: promoted the dissociation of c-Myc from Max
